The source of these data is US11208446B2, “Agents and methods for treating CBP-dependent cancers” (priority 2016, dated 2021).

Entries after “also recorded” stand apart in the source; their conditions may differ. *: point of attachment. Biotin = O=C1N[C@H]2[C@H](CS[C@H]2CCCCC(=O)*)N1

Test [1] deals with T1, CBP in MV411 human AML cells (Homo sapiens, UniProt Q92793).
T1 construct: endogenous in cells; host or cells: MV411 human AML cells (lysate)
In words: Streptavidin affinity purification (pull-down) of CBP with biotinylated peptides, Western blot. In kind it is binding. The settings on record: AML cell lysates, competition with non-biotinylated peptide. On the procedure: Western blot analysis. Cells were lysed in RIPA buffer (Thermo Fisher) supplemented with a protease inhibitor mix comprised of AEBSF (0.5 mM concentration, Santa Cruz, SC-202041B), Bestatin (0.01 mM concentration, Fisher/Alfa Aesar, J61106-MD), Leupeptin (0.1 mM concentration, Santa Cruz, SC-295358B), and Pepstatin (0.001 mM concentration, Santa Cruz, SC-45036A). Lysates were mechanically disrupted using Covaris S220 adaptive focused sonicator, according to the manufacturer's instructions (Covaris, Woburn, Calif.). Lysates were cleared by centrifugation for 15 min at 18,000×g and clarified lysates were quantified using the bicinchoninic acid assay (Pierce). Clarified lysates (20 μg of protein) were resolved using sodium dodecyl sulfate-polyacrylamide gel electrophoresis, and electroeluted using the Immobilon FL PVDF membranes (Millipore, Billerica, Mass., USA). Membranes were blocked using the Odyssey Blocking buffer (Li-Cor, Lincoln, Nebr., USA). […] Blotted membranes were visualized using secondary antibodies conjugated to IRDye 800CW or IRDye 680RD (Goat anti-rabbit, 1:15,000, and goat anti-mouse, 1:15,000) and the Odyssey CLx fluorescence scanner, according to manufacturer's instructions (Li-Cor, Lincoln, Nebr., USA). […]

The target of another test is T2, purified CBP-KIX domain (Homo sapiens, UniProt Q92793).
T2 construct: Expression and purification of recombinant CBP KIX domain; GST (N, cleaved yes); made in house; host or cells: E. coli BL21(DE3)
Description: Microscale thermopheresis (MST) binding of FITC-conjugated peptides to purified KIX. As to conditions: FITC-conjugated peptide at fixed concentration, KIX 0.015 to 50 μM, n=3. On the procedure:
Expression and purification of recombinant CBP KIX domain. BL21(DE3) cells (Invitrogen) transformed with pGEX-KIX plasmid were induced at 37° C. with isopropyl β-D-1-thiogalactopyranoside for 3 hours. Cells were lysed in 50 mM Tris-HCl pH 7.3, 150 mM NaCl, 0.1% TWEEN-20, 1 mM DTT, 5 mM EDTA, supplemented with protease inhibitors described above and sonicated for ten minutes (15 sec on, 15 sec off, 40% amplitude) using the Misonix probe sonicator (Qsonica, Newtown, Conn.). Lysate was cleared by centrifugation for 1 h at 21,800×g at 4° C. Cleared lysate was incubated with 4 mL glutathione agarose resin slurry (GoldBio) for 1 h at 4° C. to capture GST-KIX. Resin was washed four times with 50 mM Tris-HCl pH 7.4, 150 mM NaCl. KIX domain was cleaved from GST by incubation of resin-bound GST-KIX with 160 U thrombin (GE Healthcare) overnight at room temperature. Resin was centrifuged at 500×g for 5 min. Supernatant containing cleaved KIX was collected and dialyzed at 4° C. against 50 mM MOPS pH 6.5, 50 mM NaCl, 10% glycerol, 1 μM tris-2-carboxyethylphosphine. KIX was purified using a linear gradient of 50 mM to 1 M NaCl by cation exchange chromatography using MonoS 5/50 GL column (GE Healthcare). Fractions containing purified KIX were dialyzed against 50 mM potassium phosphate pH 5.5, 150 mM NaCl, 10 μM tris-2-carboxyethylphosphine, 30% glycerol, and stored at −80° C. […]

The test system of another test is MOLM13 cells. Description: Confocal microscopy of intranuclear penetration of FITC-labelled peptide. As to conditions: 50 nM peptide, 20 minutes, human AML cell line. In kind it is cell-based. On the procedure: Confocal microscopy. Live confocal imaging was performed using the Leica SP8 confocal microscope and 63× objective with 1 μm z-stack images. Cells were applied to a poly-L-lysine coated chambered Nunc Lab-tek II slide and incubated for 2 hours at 37° C. Prior to imaging, FITC-conjugated peptides were added to cell suspensions at a concentration of 50 nM. Cells were counter-stained using Hoechst 33342 and Mitotracker Red CMX ROS (MProbes) for 10 minutes at a final dilution of 1:10,000 prior to imaging.

The target of another test is T3, MYB:CBP complex (Homo sapiens, UniProt Q92793).
T3 construct: endogenous in cells; host or cells: MV411 human AML cells
Description: Dissociation of MYB:CBP complex in AML cells (co-immunoprecipitation). Format: cell-based. On the procedure:
Co-immunoprecipitation analysis. 7.5 μg of indicated antibodies were conjugated to 1 mg M-270 Epoxy-coated magnetic beads (Invitrogen) according to manufacturer's instructions. 1×10^7 MV411 cells were collected and washed in cold PBS. Washed cell pellets were resuspended in 350 μL cold lysis buffer (50 mM Tris-HCl pH 7.4, 150 mM NaCl, 1 mM EDTA, 1 mM DTT, 0.5% Triton X-100, supplemented with protease inhibitors described above) and incubated on ice for 10 min. Cells were mechanically disrupted using the Covaris […] adaptive focused sonicator at 50 W peak power, 10% duty cycle, 200 cycles per burst at 4° C. for 300 sec. Lysate was clarified by centrifugation for 15 min at 18,000×g at 4° C. Supernatant (cleared lysate) was diluted in 1.05 mL dilution buffer (50 mM Tris-HCl, 150 mM NaCl, 1 mM EDTA, 1 mM DTT, 10% glycerol, supplemented with protease inhibitors described above for a total volume of 1.4 mL. Diluted lysate was added to 1 mg beads, and immunoprecipitation proceeded for 3 h at 4° C. with rotation. Beads were then washed with lysis buffer twice. Proteins were eluted in 20 μL EB buffer (Invitrogen) for 5 min at room temperature, and eluate was neutralized with 2 μL 1M Tris pH 11. Samples were prepared for Western blot by addition of Laemmli buffer with 50 mM DTT and incubation at 95° C. for 5 min. Presence of MYB and CBP was identified by Western blot as described above.

In test [2] the test system is MOLM13, MV411, ML2, and HL60 cell lines. Description: Cell viability, live cell count by Trypan blue exclusion. In kind it is cell-based, human. The settings on record: 10 μM and 20 μM every 48 hours for 6 days. On the procedure:
Cell culture. The human AML lines MV411, MOLM13, ML2, and HL60 were obtained from the American Type Culture Collection (ATCC, Manassas, Va., USA). Umbilical cord blood was obtained from the New York Blood Center. The identity of all cell lines was verified by STR analysis (Genetica DNA Laboratories, Burlington, N.C., USA) and absence of Mycoplasma sp. contamination was determined using Lonza MycoAlert (Lonza Walkersville, Inc., Walkersville, Md., USA). Cell lines were cultured in 5% CO2 in a humidified atmosphere at 37° C. in RPMI medium supplemented with 10% fetal bovine serum (FBS) and antibiotics (100 U/ml penicillin and 100 μg/ml streptomycin). Cell viability analysis. Cells were resuspended and plated at a concentration of 2×10^5 cells in 200 μL in 96-well tissue culture plates. Media with peptides was replaced every 48 hours. To assess the number of viable cells, cells were resuspended in PBS and 10 μL mixed in a 1:1 ratio with 0.4% Trypan Blue (Thermo Fisher) and counted using a hematocytometer (Hausser Scientific, Horsham, Pa., USA). To assess viability using an ATP-based assay, cell viability was assessed using the CellTiter-Glo Luminescent Viability assay, according to the manufacturer's instructions (Promega). Luminescence was recorded using the Infinite M1000Pro plate reader using integration time of 250 milliseconds (Tecan).

T1 sequence (Q92793 whole entry): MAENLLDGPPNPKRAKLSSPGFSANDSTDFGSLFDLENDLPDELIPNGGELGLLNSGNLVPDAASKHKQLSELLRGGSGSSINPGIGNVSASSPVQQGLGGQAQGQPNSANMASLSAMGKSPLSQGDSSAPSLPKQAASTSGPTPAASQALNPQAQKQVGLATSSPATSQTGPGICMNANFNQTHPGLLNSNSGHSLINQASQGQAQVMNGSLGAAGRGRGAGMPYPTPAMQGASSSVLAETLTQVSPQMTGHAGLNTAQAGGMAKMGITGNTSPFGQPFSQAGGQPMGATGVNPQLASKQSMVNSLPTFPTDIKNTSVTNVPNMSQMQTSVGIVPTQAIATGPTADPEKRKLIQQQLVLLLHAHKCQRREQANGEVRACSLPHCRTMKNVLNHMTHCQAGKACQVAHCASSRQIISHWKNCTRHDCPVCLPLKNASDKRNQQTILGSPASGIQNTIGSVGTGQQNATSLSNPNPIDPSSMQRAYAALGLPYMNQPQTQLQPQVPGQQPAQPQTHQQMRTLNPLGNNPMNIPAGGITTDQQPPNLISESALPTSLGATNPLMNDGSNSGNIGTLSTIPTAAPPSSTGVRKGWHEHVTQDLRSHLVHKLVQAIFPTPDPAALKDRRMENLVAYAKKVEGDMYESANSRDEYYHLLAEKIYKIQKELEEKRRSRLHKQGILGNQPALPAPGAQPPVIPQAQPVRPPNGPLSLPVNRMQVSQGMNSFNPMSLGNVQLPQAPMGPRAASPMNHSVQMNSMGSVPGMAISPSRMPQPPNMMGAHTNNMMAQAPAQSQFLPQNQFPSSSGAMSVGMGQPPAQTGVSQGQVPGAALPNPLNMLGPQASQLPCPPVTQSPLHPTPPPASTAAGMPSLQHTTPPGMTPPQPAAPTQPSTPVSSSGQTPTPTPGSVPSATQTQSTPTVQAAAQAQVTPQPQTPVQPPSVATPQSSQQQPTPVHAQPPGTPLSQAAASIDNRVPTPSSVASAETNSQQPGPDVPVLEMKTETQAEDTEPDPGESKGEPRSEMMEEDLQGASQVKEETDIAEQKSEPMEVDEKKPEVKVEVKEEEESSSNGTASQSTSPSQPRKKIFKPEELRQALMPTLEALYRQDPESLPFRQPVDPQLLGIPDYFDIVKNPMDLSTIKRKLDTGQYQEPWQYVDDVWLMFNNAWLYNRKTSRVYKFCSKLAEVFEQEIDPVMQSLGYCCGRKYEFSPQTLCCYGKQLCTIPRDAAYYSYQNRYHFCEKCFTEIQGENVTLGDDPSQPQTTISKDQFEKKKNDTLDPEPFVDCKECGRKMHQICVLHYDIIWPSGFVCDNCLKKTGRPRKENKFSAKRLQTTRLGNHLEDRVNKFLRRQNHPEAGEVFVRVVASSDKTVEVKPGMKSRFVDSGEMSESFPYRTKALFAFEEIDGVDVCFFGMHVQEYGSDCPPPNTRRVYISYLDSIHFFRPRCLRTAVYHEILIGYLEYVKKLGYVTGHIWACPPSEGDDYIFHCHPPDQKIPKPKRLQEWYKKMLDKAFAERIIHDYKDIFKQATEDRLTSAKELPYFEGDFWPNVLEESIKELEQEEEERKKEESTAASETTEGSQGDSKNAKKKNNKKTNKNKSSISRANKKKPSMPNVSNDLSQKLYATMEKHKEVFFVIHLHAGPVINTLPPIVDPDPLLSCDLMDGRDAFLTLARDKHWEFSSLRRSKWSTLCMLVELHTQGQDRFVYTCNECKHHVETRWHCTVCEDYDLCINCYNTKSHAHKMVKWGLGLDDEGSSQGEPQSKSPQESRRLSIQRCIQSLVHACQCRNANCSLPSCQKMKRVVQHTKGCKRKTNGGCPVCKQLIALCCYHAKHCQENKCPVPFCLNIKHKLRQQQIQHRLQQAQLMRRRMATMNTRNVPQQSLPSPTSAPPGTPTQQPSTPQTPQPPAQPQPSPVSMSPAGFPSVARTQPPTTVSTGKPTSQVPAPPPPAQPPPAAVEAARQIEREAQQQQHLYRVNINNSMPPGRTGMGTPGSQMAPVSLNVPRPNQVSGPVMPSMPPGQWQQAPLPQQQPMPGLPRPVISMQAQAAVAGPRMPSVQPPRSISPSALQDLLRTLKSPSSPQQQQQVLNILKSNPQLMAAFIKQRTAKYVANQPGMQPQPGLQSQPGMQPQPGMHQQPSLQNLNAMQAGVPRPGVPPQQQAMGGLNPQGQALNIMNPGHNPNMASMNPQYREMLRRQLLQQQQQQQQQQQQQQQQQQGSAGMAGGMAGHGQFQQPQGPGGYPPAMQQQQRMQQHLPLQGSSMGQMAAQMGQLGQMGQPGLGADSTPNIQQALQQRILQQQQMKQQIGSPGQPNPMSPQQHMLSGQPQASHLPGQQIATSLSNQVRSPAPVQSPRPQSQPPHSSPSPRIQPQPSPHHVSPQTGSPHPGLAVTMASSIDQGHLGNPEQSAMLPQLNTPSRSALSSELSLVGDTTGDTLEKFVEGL
T3 sequence (Q92793 2-2442 limits assumed, one chain of several): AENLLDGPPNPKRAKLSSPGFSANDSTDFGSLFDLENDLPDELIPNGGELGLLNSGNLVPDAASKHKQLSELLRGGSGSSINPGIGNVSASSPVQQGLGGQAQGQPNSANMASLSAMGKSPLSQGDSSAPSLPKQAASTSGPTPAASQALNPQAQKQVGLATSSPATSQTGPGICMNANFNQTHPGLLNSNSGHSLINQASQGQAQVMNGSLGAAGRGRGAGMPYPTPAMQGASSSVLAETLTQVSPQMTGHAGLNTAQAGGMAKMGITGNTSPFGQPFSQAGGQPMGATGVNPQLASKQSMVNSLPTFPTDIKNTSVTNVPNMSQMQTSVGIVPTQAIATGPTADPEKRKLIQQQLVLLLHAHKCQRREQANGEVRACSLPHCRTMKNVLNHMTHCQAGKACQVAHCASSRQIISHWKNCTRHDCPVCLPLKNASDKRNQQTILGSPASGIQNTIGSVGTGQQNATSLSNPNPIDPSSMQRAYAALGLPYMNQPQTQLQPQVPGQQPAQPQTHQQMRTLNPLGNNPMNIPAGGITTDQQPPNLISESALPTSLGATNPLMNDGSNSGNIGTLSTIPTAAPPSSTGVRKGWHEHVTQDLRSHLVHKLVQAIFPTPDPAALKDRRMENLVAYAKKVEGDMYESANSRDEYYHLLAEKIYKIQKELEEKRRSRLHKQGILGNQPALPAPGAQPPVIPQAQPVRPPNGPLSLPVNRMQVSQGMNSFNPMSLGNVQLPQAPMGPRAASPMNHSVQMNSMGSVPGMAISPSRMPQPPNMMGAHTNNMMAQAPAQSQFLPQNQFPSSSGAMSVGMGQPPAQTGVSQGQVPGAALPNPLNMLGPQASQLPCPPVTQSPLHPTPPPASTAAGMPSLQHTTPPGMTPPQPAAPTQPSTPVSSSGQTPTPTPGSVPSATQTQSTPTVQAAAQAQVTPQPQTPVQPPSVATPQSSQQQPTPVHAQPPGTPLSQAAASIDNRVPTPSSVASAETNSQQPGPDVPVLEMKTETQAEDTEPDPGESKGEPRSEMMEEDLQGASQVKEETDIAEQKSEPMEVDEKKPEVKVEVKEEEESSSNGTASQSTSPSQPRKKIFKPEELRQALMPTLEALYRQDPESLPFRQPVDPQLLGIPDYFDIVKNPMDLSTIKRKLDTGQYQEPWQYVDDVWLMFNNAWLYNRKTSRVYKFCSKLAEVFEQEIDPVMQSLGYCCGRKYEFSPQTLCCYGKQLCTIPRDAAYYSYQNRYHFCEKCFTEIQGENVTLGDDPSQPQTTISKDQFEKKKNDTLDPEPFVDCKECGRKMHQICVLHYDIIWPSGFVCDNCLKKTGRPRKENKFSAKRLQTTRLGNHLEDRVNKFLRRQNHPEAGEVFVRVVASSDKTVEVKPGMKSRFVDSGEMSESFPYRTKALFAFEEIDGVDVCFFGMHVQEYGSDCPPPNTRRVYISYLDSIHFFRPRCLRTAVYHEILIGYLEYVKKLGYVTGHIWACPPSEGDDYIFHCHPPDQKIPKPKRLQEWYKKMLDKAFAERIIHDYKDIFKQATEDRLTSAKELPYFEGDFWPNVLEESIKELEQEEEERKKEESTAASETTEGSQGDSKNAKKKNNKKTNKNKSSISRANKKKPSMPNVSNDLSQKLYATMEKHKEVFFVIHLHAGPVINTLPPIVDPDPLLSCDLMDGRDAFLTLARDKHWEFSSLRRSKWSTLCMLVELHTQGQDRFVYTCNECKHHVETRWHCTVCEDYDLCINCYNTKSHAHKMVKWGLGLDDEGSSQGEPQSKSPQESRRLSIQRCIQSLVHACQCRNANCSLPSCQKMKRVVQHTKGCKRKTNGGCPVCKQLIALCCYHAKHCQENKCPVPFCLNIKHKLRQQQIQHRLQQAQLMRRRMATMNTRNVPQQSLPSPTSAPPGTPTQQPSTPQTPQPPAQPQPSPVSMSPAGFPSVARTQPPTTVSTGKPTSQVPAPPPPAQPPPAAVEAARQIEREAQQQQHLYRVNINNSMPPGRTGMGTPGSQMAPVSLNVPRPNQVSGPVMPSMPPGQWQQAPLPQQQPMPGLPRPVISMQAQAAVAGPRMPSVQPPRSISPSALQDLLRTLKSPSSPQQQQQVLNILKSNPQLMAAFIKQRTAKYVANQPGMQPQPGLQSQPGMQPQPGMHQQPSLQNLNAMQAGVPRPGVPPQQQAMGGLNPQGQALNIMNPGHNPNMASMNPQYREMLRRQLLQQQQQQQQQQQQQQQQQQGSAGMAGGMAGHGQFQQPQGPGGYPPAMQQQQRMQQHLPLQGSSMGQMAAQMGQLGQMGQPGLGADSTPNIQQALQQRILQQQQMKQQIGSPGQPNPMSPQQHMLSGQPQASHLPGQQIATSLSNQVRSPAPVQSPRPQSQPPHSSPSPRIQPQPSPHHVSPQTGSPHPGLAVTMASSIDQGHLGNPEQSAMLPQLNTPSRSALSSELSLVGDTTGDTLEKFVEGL
T2 sequence (Q92793 587-666 limits assumed): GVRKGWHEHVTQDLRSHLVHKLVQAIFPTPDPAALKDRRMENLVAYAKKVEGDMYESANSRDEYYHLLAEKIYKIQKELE

As to “Biotin-YGRKKRRQRRRGGKRIKELELLLMSTENELK-NH2 [BIOMYB]”, in test [1], the “binding to / pull-down of CBP” value was “able to pull down CBP; also recorded: specific binding”. Take “acetyl-KLENETSMLLLELEKIRKGGRRRQRRKKRGYK-biotin-NH2 [RI-BIOMYB]”: in test [1], the “binding to / pull-down of CBP” value is “specific binding”. Take FITC-AHA-YGRKKRRQRRR-NH2 [FITC-TAT]: the “KD (apparent binding affinity to purified KIX)” value on purified CBP-KIX domain is recorded as “no interaction seen”. In addition, the “intranuclear penetration (FITC-Hoechst overlay)” value with MOLM13 cells is “overlap of FITC and Hoechst in the nucleus”; in the test on MOLM13 cells (listed as SEQ ID NO:6), “intranuclear penetration”. Take “[Ac]-KLGNETSMGLLELEKIGKGG-RRRQRRKKRGY-[NH2] [TG3, reference compound]”: the “MYB:CBP complex in cells” value at MYB:CBP complex was “inactive”. The “AML cell death (live cells on Day 6)” value in test [2] is “inactive”.
